Square brackets hold non-standard residues; d marks the D form. Peptide text beside a SMILES is read from it.
How the values were obtained:
[1] = tested on: BNX mice transplanted with skin from psoriatic human donors; assay: Psoriasis transplant model (human psoriatic skin on BNX mice); format: in vivo; settings: FIG. 25B; KdPT i.p. 10 μg/d, three weeks
Experimental: Immunodeficient mice (BNX mice) were transplanted with skin from psoriatic human donors. Animals with viable transplant were injected with PBMCs from the same donor, resulting in appearance of a psoriatic phenotype within the transplant. Animals were treated as follows:
Group 1: Betamethasone, topically, 2× daily, Group 2: Vehicle, i.p. 100 μL/d, Group 3: KdPT i.p. 1 μg/d, Group 4: KdPT i.p. 10 μg/d, all treatments were kept up for three weeks.
As shown in FIGS. 25A and 25B, immunodeficient mice (BNX mice) were transplanted with skin from psoriatic donors. Animals with viable transplant were injected with PBMCs from the same donor, resulting in appearance of a psoriatic phenotype within the transplant. Animals were treated as follows:
Group 1: Vehicle, i.p. 100 μL/d, Group 2: Betamethasone, topically, 2× daily, Group 3: KdPT i.p. 10 μg/d, all treatments were kept up for three weeks.

[2] = tested on: human PBMC; assay: IL-10 secretion by human PBMC (ELISA); format: cell-based; settings: for IL-10 production: 24 hours, αMSH 10^−11 M, KPV and KPT 10^−8 to 10^−9M; for production of IL-10: 48 hours
Experimental: Mononuclear cells (PBMC) were separated from human buffy coats by Ficoll Hypaque density gradient centrifugation. Cells (1×10^6 per ml), cultivated in RPMI 1640 with antibiotics and 10% FCS, were either not treated or stimulated with αMSH or the peptides KPV or KPT with or without IL-1β (10 U/ml). The supernatants of the PBMC cultures were collected after incubation for 24 or 48 hours and stored at −20° C. until used further. A commercially available ELISA was employed to detect IL-10.

[3] = target: T1, melanocortin receptor on THP-1 cells (MC-1) (Homo sapiens, UniProt Q01726); assay: Competition with biotin-labeled αMSH for binding sites on THP-1 cells (FACS); settings: unlabeled competitor 10^−6 M; biotin-labeled αMSH 10^−10 M
T1 construct: endogenous in cells; host or cells: THP-1 monocytic cell line (unstimulated, whole cells)
T1 sequence (Q01726 whole entry): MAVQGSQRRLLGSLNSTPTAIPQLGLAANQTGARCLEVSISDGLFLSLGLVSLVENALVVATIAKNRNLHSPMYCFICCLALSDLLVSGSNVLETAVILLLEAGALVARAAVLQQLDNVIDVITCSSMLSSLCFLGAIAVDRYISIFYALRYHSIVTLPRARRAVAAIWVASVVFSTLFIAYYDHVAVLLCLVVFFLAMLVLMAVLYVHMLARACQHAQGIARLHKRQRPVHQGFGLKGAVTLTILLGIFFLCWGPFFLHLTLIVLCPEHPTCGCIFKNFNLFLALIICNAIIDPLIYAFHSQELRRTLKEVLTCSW
Experimental: All the steps were carried out at 0 to 4° C. The monocytic cell line THP-1 was washed once in PBS, once one acidic glycine buffer (50 mM glycine, 100 mM sodium chloride, pH 3) and three times with RPMI. The cells 2.5×10^6 per ml) were then resuspended in 100 μl of RPMI/1% BSA and transferred into 96-well microtiter plates. […] After a last washing step, the cells were resuspended in PBS. […] Dead cells were excluded by adding propidium iodide shortly before the FACS analysis.

[4] = tested on: CD4+-T-cells; assay: CD4+ T-cells after contact with peptide-treated DC in vitro; format: cell-based
[5] = tested on: sensitised recipient mice (Hapten: DNFB); assay: Reinjection of CD4+ T-cells contacted with peptide-treated DC into DNFB-sensitised mice; format: in vivo; settings: 1×10^6 cells
[6] = tested on: Balb/C mice; assay: CHS sensitization and tolerance after i.v. injection of αMSH or peptides (DNFB); settings: for inhibition of CHS response to DNFB exposure 7 days after sensitization (auricular swelling): i.v. 2 hours before sensitization, 5 μg αMSH or 1.5 μg peptide (KP: 50 μg) per mouse; for auricular swelling response after second sensitization and hapten exposure (tolerance to DNFB): injected i.v. before the first sensitization only
Experimental: 7 to 10 week old female Balb/C mice were obtained from Charles River (Sulzfeld, Germany) and kept in compliance with government regulations.
Before the injection, the particular compound was dissolved in PBS, 0.1% mouse serum, and stored on ice until injected i.v. into the tail vein of the mice.
The mice were sensitized by spreading 75 μl of 0.5% DNFB in acetone/olive oil (4:1) on the shaven abdomen of naive mice. CHS was induced by applying 10 μl of 0.3% DNFB to the ears of the mice on both sides of one ear. CHS was determined by the degree of auricular swelling of the hapten-exposed ear compared with the other, control-treated ear and was measured using spring-loaded dividers 24 hours after hapten exposure. Mice whose ears were exposed to hapten without previous sensitization served as negative controls.

[7] = tested on: bone marrow dendritic cells (BMDC); assay: CHS and tolerance after injection of BMDC treated in vitro with hapten and αMSH or KP; format: in vivo, mice; settings: for immune response at second challenge after resensitization (tolerance): recipients of hapten- and peptide-treated BMDC; for CHS reaction at first challenge in recipients of hapten- and peptide-treated BMDC: αMSH 2×10^−11 M or KP 2×10^−6M in vitro, cells i.v.
Experimental: Bone marrow dendritic cells (BMDC) were isolated from the femoral bones of mice and treated with IL-4 and GMCSF for 6 or 9 days. On day 6 or 9, the cells were treated with αMSH (2×10^−11 M) or the peptide KP (2×10^−6M) 3 hours and 2.5 hours before reinjection into naive mice with the same genetic background. 2 hours before reinjection, the cells were treated with hapten (1 mM DNBS, the water-soluble form of DNFB). Immediately before the reinjection, the cells were washed 2× with PBS. […] were injected i.v. into each animal. Control cells were treated either with DNBS alone or with αMSH alone or were left untreated. 5 days after injection, the animals were contacted with DNFB on the ear, and the ear thickness was measured the next day. 2 weeks later, the animals were resensitized with DNFB and again recontacted on the ear 5 days later. Finally, the auricular swelling was measured.

[8] = tested on: E selectin, ICAM-1, VCAM in HDMEC and HMEC-1; assay: Expression of adhesion molecules in LPS- or TNFα-treated endothelial cells (RT-PCR, EIA, FACS); format: cell-based, human; settings: 10^−6 to 10^−12 M
Experimental: (§1) Human dermal microvascular endothelial cells (HDMEC) and the cell line HMEC-1 (human microvascular endothelial cell line 1) were treated either with TNFα or LPS in the presence or absence of one of the peptides. The cells were harvested for RNA isolation after 3 and after 6 hours after treatment or harvested either for adhesion molecule ETA or FACS analysis 3, 6, 16 or 24 hours after treatment. RNA underwent reverse transcription, and samples were subjected to a PCR for E selectin, ICAM-1, VCAM or for β-actin as housekeeping gene in order to carry out a semiquantitative determination. For the lymphocyte adhesion assay, the endothelial cells were seeded in dishes and incubated with ^51Cr-labeled lymphocytes. After a washing step, the amount of remaining lymphocytes bound to the EC layer was determined by measuring the radioactivity in the samples.

[9] = tested on: HDMEC; assay: Lymphocyte adhesion assay (51Cr-labeled lymphocytes on endothelial cell layers); format: cell-based, human; settings: molt4 T lymphocytes, JY B lymphocytes
Experimental: as §1

[10] = tested on: LPS-treated mice; assay: LPS-induced localized vasculitis in mice (E selectin, petechial lesions); format: in vivo; settings: αMSH 25 μg at the time of the preparatory LPS injection
Experimental: Mice were treated with LPS by s.c. injection on one ear. This preparatory injection induces a long-lasting rise in E selectin expression at the site of the LPS injection. 24 hours later, a second LPS dose was injected i.p. (challenge). This second LPS injection leads to rapid vessel necrolysis and to the formation of petechial lesions which are easily measurable because of their size and number. αMSH (25 μg) was administered at the time of the preparatory LPS injection.

[11] = tested on: T cells / DC; assay: T cells contacted in vitro with antigen-loaded, αMSH or derivative-treated DC; format: in vivo, mouse; settings: FIG. 15
[12] = tested on: mice with Imiquimod-induced psoriasis-like skin inflammation; assay: Imiquimod-induced psoriasis-like disease in mice; format: in vivo
[13] = tested on: PBMC from the blood of psoriasis patients; assay: Regulatory T cells in PBMC from blood of psoriasis patients; format: cell-based, human

weight loss as compared to treatment with betamethasone [1]	Compound	IL-10 production [2]	production of IL-10 [2]	suppression of biotin-labeled αMSH binding [3]	effect of co-cultured CD4+ T-cells on proliferation of CD4+CD25− responder T-cells [4]	effect of reinjected CD4+ T-cells on contact allergy [5]	inhibition of CHS response to DNFB exposure 7 days after sensitization (auricular swelling) [6]	auricular swelling response after second sensitization and hapten exposure (tolerance to DNFB) [6]	immune response at second challenge after resensitization (tolerance) [7]	CHS reaction at first challenge in recipients of hapten- and peptide-treated BMDC [7]	inhibition of LPS- or TNFα-induced expression of adhesion molecules (mRNA) [8]	binding of T and B cells to LPS- or TNF-αMSH-treated EC layers [9]	number and size of petechial lesions after challenge injection of LPS [10]	induction of tolerance by T cells contacted in vitro with antigen-loaded, treated DC [11]	number of regulatory CD4+CD25+Foxp3+ T cells ([12]; flow cytometry)	expression of regulatory T cells markers ([12]; qRT-PCR)	expression of Th17 markers ([12]; quantitative RT-PCR)	expression of Foxp3 and IL-10 in regulatory T cells [13]	expression of IFN-γ in regulatory T cells [13]
does not result in weight loss	C[C@@H](O)[C@H](NC(=O)[C@H]1CCCN1C(=O)[C@@H](N)CCCCN)C(=O)O [KdPT, (L)Lys-(D)Pro-(L)Thr] (H-Lys-[dP]-Thr-OH)	–	–	–	–	–	–	–	–	–	–	–	–	–	–	–	–	–	–
–	Lys-Pro-Val [KPV]	evidently induced IL-10 production	significantly increased	significant inhibition	suppressive effect on the proliferation	suppressive effect on contact allergy	inhibits	weak effect	–	–	–	–	–	–	–	–	–	–	–
–	Lys-Pro [KP]	–	–	–	–	–	inhibits	inhibited the auricular swelling response very greatly	can induce tolerance	suppressed	–	–	–	–	–	–	–	–	–
–	α-melanocyte-stimulating hormone [αMSH]	evidently induced IL-10 production	significantly increased	–	suppressive effect on the proliferation	suppressive effect on contact allergy	inhibits	inhibited the auricular swelling response very greatly	no immune response	suppressed	inhibited	significantly reduces	significantly reduces	induction of tolerance	increased numbers	increased expression	Reduced Expression	upregulated	downregulated substantially

Source: patent publication US10046020B2, “Inflammation inhibiting compounds” (priority 2001, dated 2018)
